Assay results as given in patent US20260049079A1, “CHIRAL SYNTHESIS OF FUSED BICYCLIC RAF INHIBITORS” (Jazz Pharmaceuticals Ireland Limited, priority 2020, published 2026).
Values after ≈ are worked out from the molar mass of the structure shown. Read-outs that look alike come from different tables or passages of the source.

What was measured:
[1] = test system: HCT-116 cells; assay: HCT-116 CellTiter-Glo 3D Cell Proliferation Assay; assay type: cell-based; details: Homo sapiens, HCT116 spheroids, read-out: 3D HCT116 pGI50 (converted)
Description: HCT-116 CellTiter-Glo 3D) Cell Proliferation Assay
On the first day, HCT-116 cells were harvested, resuspended in growth medium (McCoys5A with Glutamax (Life Technologies 36600021) with 10% heat-inactivated fetal bovine serum (Sigma F9665)), and counted. Cells were plated in 100 μl per well in each well of a Corning 7007 96-well clear round bottom Ultra-Low Attachment plate (VWR 444-1020) to a final density of 1000 cells per well. Cells were seeded for pre- and post-treatment readouts. The cells were then incubated at 37° C. and 5% CO2 for 3 days (72 hours) to allow spheroid formation. After 72 hours, the plate seeded for a pre-treatment read was removed from the incubator to allow equilibration to room temperature for 30 minutes, before CellTitre-Glo® reagent was added to each well. The plates were incubated at room temperature for 5 minutes shaking at 300 rpm, followed by an incubation of 25 minutes on the benchtop before being read on the Envision reader (Perkin Elmer) as described below. On the same day, the cells plated for the post-treatment readout were dosed with compounds to produce a 9-point dose response, where the top concentration was 15 M and following concentrations were at ½ log dilution intervals. […] Therefore, plates were read on an EnVision reader (Perkin Elmer) and luminescence signals were recorded. […]

[2] = test system: constitutive ERK phosphorylation in WiDr cells (BRAF V600E); assay: WiDr AlphaLISA SureFire pERK1/2 Cellular Assay; assay type: cell-based; details: Homo sapiens
Description: [Worded in the source for another cell line; used here, by the source, with some conditions changed.] (§1) The human HCT-116 colorectal carcinoma cell line (ATCC CCL-247) endogenously expresses the KRAS^G13D mutation, which leads to constitutive activation of the MAP kinase pathway and phosphorylation of ERK. […] Assay read outs took place 2 or 24 hours after dosing with compounds. On the first day, HCT-116 cells were harvested, resuspended in growth medium (McCoys5A with Glutamax (Life Technologies 36600021) and 10% heat-inactivated fetal bovine serum (Sigma F9665)), and counted. Cells were plated in 100 μl per well in each well of a 96-well culture dish (Sigma CLS3598) to a final density of 30,000 (2 hr read) or 15,000 (24 hr read) cells per well and incubated over night at 37° C. and 5% CO2. On day 2, the growth medium was exchanged for dosing medium (McCoys5A with Glutamax (Life Technologies 36600021) and 1% heat-inactivated fetal bovine serum (Sigma F9665)) and the cells were dosed with compounds to produce a 10-point dose response, where the top concentration was 1 μM and subsequent concentrations were at ⅓ log dilution intervals. A matched DMSO control was included. The cells were subsequently incubated for either 2 or 24 hours at 37° C. and 5% CO2. After incubation, media was removed and the cells were incubated with lysis buffer containing phosphatase inhibitors for 15 minutes at room temperature. Cell lysates were transferred to a ½ area 96 well white Optiplate™ (Perkin Elmer 6005569) and incubated with anti-mouse IgG acceptor beads, a biotinylated anti-ERK1/2 rabbit antibody recognizing both phosphorylated and non-phosphorylated ERK1/2, a mouse antibody targeted to the Thr202/Tyr204 epitope and recognizing phosphorylated ERK proteins only, and streptavidin-coated donor beads. The biotinylated antibody binds to the streptavidin-coated donor beads and the phopsho-ERK1/2 antibody binds to the acceptor beads. Plates were read on an EnVision reader (Perkin Elmer) and excitation of the beads at 680 nm with a laser induced the release of singlet oxygen molecules from the donor beads that trigger energy transfer to the acceptor beads in close proximity, producing a signal that can be measured at […]. Both antibodies bound to phosphorylated ERK proteins, bringing the donor and acceptor beads into close proximity. All data were analyzed using the Dotmatics or GraphPad Prism software packages. Inhibition of ERK phosphorylation was assessed by determination of the absolute IC50 value, which is defined as the concentration of compound required to decrease the level of phosphorylated ERK proteins by 50% when compared to DMSO control.
WiDr AlphaLISA SureFire pERK1/2 Cellular Assay […]

[3] = Plasma Protein Binding Assay (mPPB); assay type: in vitro ADME; details: mouse plasma, equilibrium dialysis, 5 μM, 4 hours, 37° C.
Description: (§2) Plasma Protein Binding Assay
(§3) The plasma protein binding was determined by the equilibrium dialysis method. A known concentration of compound (5 μM) in previously frozen human or mouse plasma (Sera Labs) was dialysed against phosphate buffer using a RED device (Life Technologies) for 4 hours at 37° C. The concentration of compound in the protein containing (PC) and protein free (PF) sides of the dialysis membrane were determined by LC-MS/MS and the % free compound was determined by equation 4. Data analysis was performed using Excel (Microsoft, USA).
(§4) hPPB (human plasma protein binding) and mPPB (mouse plasma protein binding) results are described in Table 34D.

[4] = test system: RAF dimers in HCT-116 cells (Encorafenib-induced pERK signalling); assay: HCT-116 AlphaLISA SureFire pERK1/2 Cellular Assay (Dimer); assay type: cell-based; details: Homo sapiens
Description: as §1
HCT-116 AlphaLISA SureFire pERK1/2 Cellular Assay (Dimer) […]

[5] = Microsomal Stability Assay (MLM); assay type: in vitro ADME; details: mouse liver microsomes, 0.5 mg/mL protein, 1 μM compound, 37° C.
Description: (§5) Microsomal Stability Assay
(§6) The stability studies were performed manually using the substrate depletion approach. Test compounds were incubated at 37° C. with cryo-preserved mouse or human liver microsomes (Corning) at a protein concentration of 0.5 mg·mL^−1 and a final substrate concentration of 1 μM. Aliquots were removed from the incubation at defined timepoints and the reaction was terminated by adding to ice-cold organic solvent. Compound concentrations were determined by LC-MS/MS analysis. The natural log of the percentage of compound remaining was plotted against each time point and the slope determined. The half-life (t1/2) and CLint were calculated using Equations 1 and 2, respectively. Data analysis was performed using Excel (Microsoft, USA).
(§7) HLM (human liver microsomes) and MLM (mouse liver microsomes) stability assay results are described in Table 34C.

[6] = test system: constitutive ERK phosphorylation in HCT-116 cells (KRAS G13D); assay: HCT-116 AlphaLISA SureFire pERK1/2 Cellular Assay; assay type: cell-based; details: Homo sapiens
Description: HCT-116 AlphaLISA SureFire pERK1/2 Cellular Assay
as §1

[7] = Microsomal Stability Assay (HLM); assay type: in vitro ADME; details: human liver microsomes, 0.5 mg/mL protein, 1 μM compound, 37° C.
Description: as §5, §6, §7

[8] = test system: WiDr cells; assay: WiDr CellTiter-Glo 3D Cell Proliferation Assay; assay type: cell-based; details: Homo sapiens, WiDr spheroids, read-out: 3D WiDr pGI50 (converted)
Description: The CellTitre Glo® reagent lyses the cells and contains luciferin and a luciferase (Ultra-Glo™ Recombinant Luciferase), which in the presence of ATP and oxygen can produce bioluminescence from luciferin. Therefore, plates were read on an EnVision reader (Perkin Elmer) and luminescence signals were recorded. Cell proliferation was determined on 4 days after dosing relative to the pre-treatment read. All data were analyzed using the Dotmatics or GraphPad Prism software packages. Inhibition of proliferation was assessed by determination of the GIso value, which was defined as the concentration of compound required to decrease the level of cell proliferation by 50% when compared to DMSO control.
The human WiDr colorectal adenocarcinoma cell line (ATCC CCL-218) endogenously expresses the BRAF^V600E mutation, which leads to enhanced survival and proliferative signaling.

[9] = FeSSIF Solubility Assay; assay type: physicochemical; details: fed state simulated intestinal fluid (FeSSIF), thermodynamic from solid, pH 5 acetate buffer, 37° C., read-out: FESSIF sol
Description: 1 mL of fed state simulated intestinal fluid (FeSSIF), prepared using FaSSIF/FeSSIF/FaSSGF powder (Biorelevant.com) and pH 5 acetate buffer, was added to 1.0 mg of compound and then incubated for 24 h (Bioshake iQ, 650 rpm, 37° C.). Following filtration under positive pressure, the concentration of compound in solution was assessed by LC-UV in comparison to the response for a calibration standard of known concentration (250 μM). FeSSIF solubility results are described in Table 34D.

[10] = Hepatocyte Stability Assay (HLH); assay type: in vitro ADME; details: human hepatocytes, 0.5×10^6 cells/mL, 1 μM compound, 37° C.
Description: (§8) Hepatocyte Stability Assay
(§9) Hepatocyte stability studies were performed manually using the substrate depletion approach. Compounds were incubated at 37° C. with cryo-preserved mouse (Bioreclamation) or human (Corning) hepatocytes at a cell density of 0.5×10^6 cells/mL and a final compound concentration of 1 μM. Sampling was performed at defined timepoints and the reaction was terminated by adding to ice-cold organic solvent. Compound concentrations were determined by LC-MS/MS analysis. The natural log of the percentage of compound remaining was plotted against each time point and the slope determined. The half-life (t1/2) and CLint were calculated using Equations 1 and 3, respectively. Data analysis was performed using Excel (Microsoft, USA).
(§10) HLH (human liver hepatocytes) and MLH (mouse liver heptaocytes) stability assay results are described in Table 34C.

[11] = test system: BRAF monomers in A375 cells (BRAF V600E, pERK); assay: A375 AlphaLISA SureFire pERK1/2 Cellular Assay (Monomer); assay type: cell-based; details: Homo sapiens
Description: [Worded in the source for another cell line; used here, by the source, with some conditions changed.] as §1
A375 AlphaLISA SureFire pERK1/2 Cellular Assay (Monomer) […]

[12] = Hepatocyte Stability Assay (MLH); assay type: in vitro ADME; details: mouse hepatocytes, 0.5×10^6 cells/mL, 1 μM compound, 37° C.
Description: as §8, §9, §10

[13] = Plasma Protein Binding Assay (hPPB); assay type: in vitro ADME; details: human plasma, equilibrium dialysis, 5 μM, 4 hours, 37° C.
Description: as §2, §3, §4

[14] = WiDr, 2 h, read-out: PERK WiDr (2 hr) Abs plC50
[15] = HCT-116, 1 h, read-out: PERK HCT116 dimer (1 hr) plC50
[16] = HCT-116, 2 h, read-out: PERK HCT116 (2 hr) Abs plC50
[17] = HCT-116, 24 h, read-out: pERK HCT116 (24 hr) Abs plC50
[18] = A-375, 1 h, read-out: PERK A375 mono (1 hr) plC50

| Structure (SMILES) | GI50 [1] [µM] | IC50 [2, 14] [µM] | mPPB (% free) [3] [% free] | IC50 [4, 15] [µM] | microsomal CLint at 1 µM [5] [µL/min/mg] | IC50 [6, 16] [µM] | IC50 [6, 17] [µM] | microsomal CLint at 1 µM [7] [µL/min/mg] | GI50 [8] [µM] | solubility thermodynamic at 24 h [9] [µg/mL] | hepatocyte CLint at 1 µM [10] [µL/min/1e6 cells] | IC50 [11, 18] [µM] | hepatocyte CLint at 1 µM [12] [µL/min/1e6 cells] | hPPB (% free) [13] [% free] | IC50 ([2]; WiDr cells, 2 hr, absolute pIC50, read-out: PERK WiDr (2 hr) Abs plC50 (converted)) [µM] | IC50 ([4]; HCT-116, HCT116 cells, RAF dimer, 1 hr, read-out: PERK HCT116 dimer (1 hr) plC50 (converted)) [µM] | IC50 ([6]; HCT-116, HCT116 cells, 2 hr, absolute pIC50, read-out: PERK HCT116 (2 hr) Abs plC50 (converted)) [µM] | IC50 ([6]; HCT-116, HCT116 cells, 24 hr, absolute pIC50, read-out: pERK HCT116 (24 hr) Abs plC50 (converted)) [µM] | IC50 ([11]; A-375, A375 cells, BRAF monomer, 1 hr incubation, read-out: PERK A375 mono (1 hr) plC50 (converted)) [µM] |
| --- | --- | --- | --- | --- | --- | --- | --- | --- | --- | --- | --- | --- | --- | --- | --- | --- | --- | --- | --- |
| O=C1CCc2c(Oc3ccc4c(c3)C[C@@H](c3nc(-c5ccc(F)cc5)c[nH]3)CO4)ccnc2N1 (single isomer, unassigned) [Compound A-1] | 0.0407 | 0.0457 | 0.8 | 0.0407 | 16 | 0.049 | 0.0955 | 21.7 | 0.0525 | 9.9 (≈ 21.7 µM) | 26.8 | 0.0309 | 11 | 0.5 | – | – | – | – | – |
| O=C1CCc2c(Oc3ccc4c(c3)C[C@H](c3nc(-c5ccc(F)cc5)c[nH]3)CO4)ccnc2N1 (single isomer, unassigned) [Compound A-2] | 0.263 | 0.162 | 0.9 | 0.0355 | 80.1 | 0.0692 | 0.115 | 11.8 | 0.537 | 9.4 (≈ 20.6 µM) | 11.4 | 0.275 | 12.5 | 0.7 | – | – | – | – | – |
| O=C1CCc2c(Oc3ccc4c(c3)CC(c3ncc(-c5ccc(F)cc5)[nH]3)CO4)ccnc2N1 (racemic) [A-rac] | – | 0.0562 | 1.8 | 0.049 | 30.6 | 0.0741 | 0.0871 | 26.9 | – | – | 4.6 | 0.055 | 23.4 | 0.5 | – | – | – | – | – |
| O=C1CCc2c(Oc3ccc4c(c3)CC(c3nc(-c5cccs5)c[nH]3)CO4)ccnc2N1 (racemic) [B-rac] | – | – | 0.7 | – | 58.8 | – | – | 60.1 | – | – | 11.5 | – | – | 0.7 | 0.0447 | 0.0282 | 0.0191 | 0.024 | 0.049 |
